Measured values as given in patent publication US12268660B2, “Oral pharmaceutical formulations of bitter compounds for pulmonary hypertension” (Aardvark Therapeutics Inc., priority 2018, dated 2025).
Structures can show the parent of a compound that is named as a salt. Where two headings read alike, the source gives them in different places.

How the values were obtained:
[1] = tested on: human primary smooth muscle cells (PVSMC); conditions: endothelin-1 100 nM; for synergy in combination with SIN: bitter agent 1 mM with low SIN doses (10 μM)
Protocol: An in vitro model using human primary smooth muscle cells (PVSMC) were stimulated to contract with 100 nM endothelin-1, then treated with various test compounds alone and in combination with the PDE-5 inhibitor sildenafil, approved to treat PAH. The concentration used were 3-CQL at 1 mM, DB at 1 mM, DS at 1 mM and SIN (sildenafil) at 10 μM. The controls were 0.5% and 1% DMSO in media because DB is water-soluble but DS, 3-CQL and SIN are DMSO soluble.

primary pulmonary SMCs = assay: Second experiment: primary pulmonary SMCs induced to contract with 10 μM phenylephernine (PE); type: cell-based; conditions: PE 10 μM; for synergy in combination with SIN: bitter agent with low SIN doses
Protocol: In a second experiment, primary pulmonary SMCs were induced to contract using 10 μM phenylephernine (PE). PE was added after a baseline reading. The test compounds were added after a second timepoint and 800-1300 cells were assayed per trace, starting with FIG. 6.

[2] = Solubility of test compounds (choice of control media); conditions: water or DMSO
[3] = cited from earlier work
TAS2R subtypes = conditions: cited from earlier work
[4] = SIN by itself at low doses (10 μM)

Row | solubility [2] | Molecule | synergy in combination with SIN [1] | synergy in combination with SIN (primary pulmonary SMCs) | TAS2R subtypes activated (number) (TAS2R subtypes) | also measured
1 | DMSO soluble | O=C(/C=C/c1ccc(O)c(O)c1)O[C@@H]1C[C@]2(O)C[C@@H](OC2=O)[C@@H]1O [3-CQL, 3-caffeoylquinic-1,5-lactone] | synergy | possibly |  | 
2 |  | CN1CCc2cccc3c2[C@H]1Cc1ccc(O)c(O)c1-3 [Apomorphine, 5,6,6a,7-Tetrahydro-6-methyl-4H-dibenzo[de,g]quinoline-10,11-diol hydrochloride] |  |  |  | oral availability [3]: ~4%
3 |  | CC[N+](CC)(CC(=O)Nc1c(C)cccc1C)Cc1ccccc1.O=C([O-])c1ccccc1 [DB, Denatonium Benzoate] | synergy | synergy | 8 | potency in reversal from peak contraction of the PVSMCs ([1]; DB alone (1 mM)): not potent
4 |  | CC[N+](CC)(CC(=O)Nc1c(C)cccc1C)Cc1ccccc1 [DS, Denatonium Saccharide] | synergy | synergy |  | 
5 | DMSO soluble | CCCc1nn(C)c2c(=O)[nH]c(-c3cc(S(=O)(=O)N4CCN(C)CC4)ccc3OCC)nc12 [SIN, sildenafil, reference compound] |  |  |  | efficacy in reversal from peak contraction of the PVSMCs ([1]; SIN at 100 μM): extremely effective; efficacy in reversal from peak contraction of the PVSMCs [1, 4]: not effective; in vitro efficacy against PE-induced contraction (primary pulmonary SMCs; SIN at 100 μM): extremely effective; in vitro efficacy against PE-induced contraction (primary pulmonary SMCs; [4]): not effective
6 |  | quinine [reference compound] |  |  | 9 | 
